Several values for one entry are separate records, joined by “and”; a condition that tells them apart may be missing. Equal entries are not always repeated.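 Cells were grown in 96-well plates and exposed to each compound for 48 hours at five concentrations; endpoints were interpolated linearly between bracketing concentrations, or set to the highest concentration if not reached. GI50 = concentration required for 50% inhibition of growth. At the TGI there is no net growth.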
How the values were obtained:
Experiment in all cases: inhibition of tumour cell growth, NCI panel, 48 h
[1] = tested on: T-47D breast
[2] = tested on: SF-539 CNS
[3] = tested on: NCI-H23 lung
[4] = tested on: MOLT-4 leukemia
[5] = tested on: SK-MEL-5 melanoma
[6] = tested on: HCT-116 colon
[7] = tested on: ACHN renal
[8] = tested on: TK-10 renal
[9] = tested on: MALME-3M melanoma
[10] = tested on: HOP-92 NSCLC

Row | SMILES | GI50 [1] [µM] | TGI [1] | GI50 [2] [µM] | TGI [2] [µM] | GI50 [3] [µM] | TGI [3] [µM] | GI50 [4] [µM] | TGI [4] [µM] | GI50 [5] [µM] | TGI [5] [µM] | GI50 [6] [µM] | TGI [6] [µM] | GI50 [7] [µM] | TGI [7] [µM] | GI50 [8] [µM] | TGI [8] [µM] | GI50 [9] [µM] | TGI [9] [µM] | GI50 [10] [µM] | TGI [10] [µM]
1 | O=C(CSC(c1ccccc1)c1ccccc1)N/N=C/c1ccco1 | 28.3 | > 100 µM | 2.07 | 7.55 | 1.6 | 4.46 | 1.64 | 4.48 | 1.5 | 6.41 | 1.46 | 2.98 | 1.82 | 3.62 | 2.21 | 7.62 | 1.53 | 2.94 | 1.44 | 2.97
2 | COc1ccc2c3c(Nc4ccc(/C(C)=N/O)cc4)[nH]c4ccccc4c-3c(N=O)c2c1 | 24.1 | 53.2 µM | 17.3 | 34.6 | 4.59 | 18.2 | 0.951 | 2.84 | 3.76 | 14.8 | 1.47 | 2.89 | 0.568 | 2.54 | 5.05 | 71.7 | 6.31 | 27.6 | 13.1 | 36
3 | CCCCCCCCCCCCOC1C(C(CC(=O)NCCN2CCCC2)NS(=O)(=O)c2cc(Cl)cc(Cl)c2)OC2OC(C)(C)OC21 (centres undefined) |  | 4.46 µM and 2.04 µM | 2.01 | 3.48 | 2.21 | 4.76 | 2.03 | 4.33 | 1.81 | 3.27 | 1.85 | 4.78 | 1.9 | 3.37 | 2 | 3.82 | 1.89 | 3.62 | 1.49 | 3
4 | COc1ccc2c(Oc3ccc(NC(=O)c4c(C)n(CC(C)(C)O)n(-c5ccccc5)c4=O)nc3)ccnc2c1 | 25.4 | > 100 µM | 5.85 | 50.9 | 18.4 | > 100 | 9.07 | > 100 | 11.5 | > 68.1 | 8.55 | > 64.3 | 5.02 | > 100 | 5.92 | 19.8 | 9.06 | 51.1 | 1.79 | 16.7
5 | CCN(CC)c1cc2oc3cc(N)cc(=N)c-3nc2cc1C | 5.04 | 43.8 µM | 3.44 | 14.2 | 2.11 | 17.9 |  |  | 1.42 | 2.79 | 1.83 | 5.69 | 1.69 | > 100 | 4.9 | 23.1 | 2.16 | 6.08 | 20.2 | 79.7
6 | CC1C(=O)OC2CC[N+]3([O-])CC=C(COC(=O)C(C)(O)C1(C)O)C23 (centres undefined) |  | > 100 µM |  | > 100 |  | > 100 |  | > 100 |  | > 100 |  | > 100 |  | > 100 |  | > 100 |  | > 100 |  | > 100
7 | O=C(OCc1ccc2c(Cl)cc(Cl)c(O)c2n1)N1CCN(C(=O)c2cc3cc(F)ccc3[nH]2)CC1 | > 100 | > 100 µM | 0.403 | 3.02 | 2.25 | > 100 | 1.02 | > 100 | 1.11 | 3.9 | 0.392 | > 100 | 0.611 | > 100 | 99.5 | > 100 | 3.71 | > 100 | 3.1 | > 100
8 | Cc1ncc([N+](=O)[O-])n1CCNS(=O)(=O)CCCn1ncnc1[N+](=O)[O-] |  | > 100 µM |  | > 100 |  | > 100 |  | > 100 |  | > 100 |  | > 100 |  | > 100 |  | > 100 |  | > 100 |  | > 100
9 | CC1=C(C(=O)Nc2ccccc2)C(c2ccc(C3C(C(=O)Nc4ccccc4)=C(C)NC(C)=C3C(=O)Nc3ccccc3)cc2)C(C(=O)Nc2ccccc2)=C(C)N1 |  | 16.2 µM |  | 5.97 |  | 8.65 |  | 11.6 |  | 6.22 |  | 4.52 |  | 4.2 |  | 18.3 |  | 4.33 |  | 9.78
10 | COc1ccc(Cc2cnc(NC(=O)c3ccc4c(c3)OCCO4)s2)cc1 | 2.95 | > 100 µM | 0.0257 | 0.714 | 0.0537 | > 100 | 0.0504 | > 100 | 0.0268 | 0.168 | 0.032 | > 38.8 | 0.0553 | > 100 | 0.406 | 35.3 | 1.52 | > 61.6 | 3.62 | > 76.6
11 | COCOc1ccc(C2(O)Oc3cc(OCOC)ccc3C2C)c(O)c1 (centres undefined) |  | 25.8 µM |  | 29.1 |  | 23.9 |  | 60.8 |  | 23 |  | 27.6 |  | 26.7 |  | 32.5 |  | 28.7 |  | 30.5
12 | CCC(=O)Nc1ccc(N=NN(C)C)cc1 |  | 30.4 µM |  | > 100 |  | > 100 |  | 43.4 |  | > 100 |  | > 100 |  | > 100 |  |  |  | > 100 |  | 90.2
13 | C[C@]12CC[C@@H]3c4ccc(O)c([N+](=O)[O-])c4CC[C@H]3[C@@H]1CC[C@@H]2NS(=O)(=O)c1cccc(Br)c1 | 1.8 | 3.96 µM | 1.55 | 3.24 | 2 | 5.06 | 2.98 | 13.4 | 1.67 | 3.11 | 1.92 | 4.17 | 2.59 | 8.17 | 2.92 | 8.98 | 2.17 | 5.4 | 1.53 | 5.03
14 | Cn1cc(-c2ccc(-c3cncc(Cl)c3N3CCC4(CCNC4=O)CC3)cc2)cn1 | 25.9 | > 100 µM | 27.8 | > 100 | > 100 | > 100 | 15.5 | > 100 | 40.3 | > 100 | 24.3 | > 100 | 23 | > 100 |  |  | 66.6 | > 100 | > 100 | > 100
